Assay results: US20040087842A1, “Fluorescent probes for saccharrides” (priority 2002, published 2004)
Where two headings read alike, the source gives them in different places.

Experiments:
[1] = Fluorescence titration curves against sugar (dissociation constant), D-fructose; format: binding
Protocol: (§1) Stilbene-4-boronic acid (STBA), 4′-cyanostilbene-4-boronic acid (CSTBA), 4′-methoxystilbene-4-boronic acid (MSTBA) and 4′-(dimethylamino)stilbene-4-boronic acid (DSTBA) were synthesized by the Wittig reaction between the para-substituted benzaldehydes and the para-boronic acid derivative of the benzyltriphenylphosphonium bromide. This latter was synthesized by the reaction of the p-bromomethylphenylboronic acid with triphenylphosphine in toluene. […] Absorption spectrawere recorded with a Cary 50 UV-Vis spectrophotometer from Varian. Emission spectra were recorded with a Varian Eclipse spectrofluorometer from Varian. In both cases, the measurements were taken at room temperature in a 1 cm quartz cuvette. For all measurements, the absorbances of the solutions were about 0.1 corresponding to a concentration range of 2-3×10^−6 M of the fluorophore. Fluorescence quantum yields were measured against p-quaterphenyl in cyclohexane (ΦF=0.89) for trans-stilbene (ST) and STBA, anthracene in cyclohexane (φF=0.36) for CSTBA and MSTBA and Quinine sulfate in 1N sulfuric acid (ΦF=0.577) for DSTBA.
(§2) where Iacid and Ibase are the intensity limits in the acid and basic region, respectively. Titration curves against sugar were fitted and dissociation constant (KD) values were obtained using the equation: [formula]
(§3) where Io and If are the initial (no sugar) and final (plateau) intensities of the titration curves. All solutions in water and buffer contained also 33.3% […] methanol to avoid any problem due to the aggregation.

[2] = Fluorescence titration curves against sugar (dissociation constant), D-galactose; format: binding
Protocol: as §1, §2, §3

[3] = Fluorescence titration curves against sugar (dissociation constant), D-glucose; format: binding
Protocol: as §1, §2
(§4) where Io and If are the initial (no sugar) and final (plateau) intensities of the titration curves. […]

[4] = Titration curves against pH (pKa of the boronic acid group) with and without sugar; format: physicochemical; conditions: for pKa: aqueous buffer solutions with methanol
Protocol: Titration curves against pH were measured in buffer solutions: acetate buffer for pH 4.0-5.5, phosphate buffer for pH 6.0-9.0 and carbonate buffer for pH 10,0-11.0. Titration curves were fitted and pKa (pKa=−log Ka) values were obtained using the equation: [formula]
as §2, §4

[5] = Emission intensity change of STBA after addition of sugars; conditions: phosphate buffer pH 8.0/methanol 2:1 (v/v), λex=310 nm
Text: A decrease of the fluorescence emission is observed after the addition of sugar. The overall decrease is relatively weak, about 15%. Since the same intensity change is observed by increasing the pH, this change is attributed to the formation of the anionic form of the boronic acid group. […] The decrease of this pKa for the complex with sugar is also a general observation for this chelator group. […] At pH 8.0, STBA is present mostly in its neutral form. After the addition of sugar, the complex exists under the anionic form due to its lower pKa. This change from the neutral to the anionic form is at the origin of the intensity changes observed for STBA and the other complexes presented in this study. […]
Stilbene-4-boronic acid (STBA), 4′-cyanostilbene-4-boronic acid (CSTBA), 4′-methoxystilbene-4-boronic acid (MSTBA) and 4′-(dimethylamino)stilbene-4-boronic acid (DSTBA) were synthesized by the Wittig reaction between the para-substituted benzaldehydes and the para-boronic acid derivative of the benzyltriphenylphosphonium bromide. […] Absorption spectrawere recorded with a Cary 50 UV-Vis spectrophotometer from Varian. Emission spectra were recorded with a Varian Eclipse spectrofluorometer from Varian. […] For all measurements, the absorbances of the solutions were about 0.1 corresponding to a concentration range of 2-3×10^−6 M of the fluorophore. […]

[6] = cited from earlier work
[7] = cited from earlier work; for decrease of emission intensity after addition of glucose: pH 7.4, literature
[8] = Yoon et al., cited from earlier work
[9] = Fluorescence titration curves against sugar (dissociation constant), D-fructose; format: binding; conditions: compounds 4 and 5; phosphate buffer pH 8.0/methanol 1:2 (v/v)
[10] = Stability and dissociation constants of 7 and 8 for D-glucose from steady-state and frequency-domain fluorescence; format: binding; conditions: 1:1 complex with D-glucose, methanol/phosphate buffer pH 7.7 (1:3)
Text: (§5) As discussed in the literature, the change is the intensity is attributed to the removal of the PET quenching due to the interaction between the boron and nitrogen atoms following the binding with glucose. In attempt to see the possible interference from macrobiosystems, titration curves have also been measured in presence of BSA and two detergents, one with a […] charged head group (HDTBr) and the other with a […] charged head group (SDS). BSA has a little effect on the titration curve of 7 and no effect for compound 8. The effect of BSA one compound 7 could be the result of an interaction between these two compounds. But, as the measurements are taken in a mixture of methanol and water, aggregation could not be neglect. […] To obtain a reproducible titration curve, vigorous stirring and time must be applied. In the presence of micelles, a complete inhibition of the intensity change is observed. […] For compound, the dissociation constant is in the millimolar range which is characteristic with the boronic acid group. For compound 8, this dissociation constant goes down to submillimolar range. This is due to the ability of both boronic acid group present on compound 8 to bind one molecule of glucose.
Titration curves obtain with the mean lifetime and with the phase angle and modulation are shown in FIGS. 24 and 25 respectively for both compounds. […] This is due to the fact that the short lifetime component becomes less important and gradually the decay become more monoexponential with the addition of glucose. For compound 8, the combination of larger mean lifetime change and decrease of the short lifetime component result in a larger change in the phase angle and modulation with the presence of glucose. The apparent association constants obtained with the mean lifetime, phase angle and modulation show a decrease of an order in comparison with the KD obtained with the steady-state intensity change. […] This is due to the more important contribution of the complex (probe with analyte) on the lifetime because of the higher quantum yield and longer lifetime of the latter.
Steady-state fluorescence measurements were performed in 1 cm quartz cuvette in an ISS spectrofluorometer.
Frequency-domain (FD) measurements were performed using instrumentation described previously (65). The Domain (TD measurements can also be applied to the fluorescent compounds and methods of the present invention, as readily recognized by those of ordinary skill in the art. For Example 4, an amplitude modulated UV-LED was use as light source given and peak intensity centered around 370 nm. Emission was observed through a 415 nm cut-off and a 420 nm interference filter. The FD or TD intensity decay data were analyzed by nonlinear least squares in terms of the multiexponential model: [formula]
The values of (τ) are thought to be proportional to the quantum yield of the sample. […] Stability and association constants are determined according to the method described in the literature.

[11] = Solubility observation during titrations; format: physicochemical; conditions: methanol/water mixture
Text: as §5

[12] = literature value; read-out: KD D-galactose; cited from earlier work
[13] = stilbenes, pH 8.0, 33.3% methanol, read-out: KD D-fructose
[14] = stilbenes, pH 8.0, 33.3% methanol, read-out: KD D-galactose
[15] = stilbenes, pH 8.0, 33.3% methanol, read-out: KD D-glucose
[16] = stilbenes, 33.3% methanol, 50 mM D-fructose, read-out: pKa +D-fructose (50 mM)
[17] = stilbenes, 33.3% methanol, 50 mM D-glucose, read-out: pKa +D-glucose (50 mM)
[18] = stilbenes, solution contained 33.3% methanol, no sugar, read-out: pKa Alone
[19] = compounds 4 and 5, phosphate buffer pH 8.0/methanol 1:2 (v/v), read-out: KD galactose
[20] = compounds 4 and 5, phosphate buffer pH 8.0/methanol 1:2 (v/v), read-out: KD glucose
[21] = compounds 4 and 5, 66.6% methanol, 50 mM fructose, read-out: pKa fructose (50 mM)
[22] = compounds 4 and 5, 66.6% methanol, 170 mM glucose, read-out: pKa glucose (170 mM)
[23] = compounds 4 and 5, buffer with 66.6% (v/v) methanol, read-out: pKa no sugar
[24] = compound 6, pH 7.0, phosphate buffer/methanol 2:1
[25] = 30 MHz, read-out: KD, Modulation
[26] = 30 MHz, read-out: KD, Phase Angle
[27] = read-out: KD, Steady State Intensity

N#Cc1ccc(/C=C/c2ccc(B(O)O)cc2)cc1 [CSTBA, 4′-cyanostilbene-4-boronic acid]
Kd ([1]; pH 7.0, read-out: dissociation constant for D-fructose): 3.22 mM | Kd ([1]; pH 7.5, read-out: dissociation constant for D-fructose): 1.19 mM | Kd [1, 13]: 0.65 mM | Kd [2, 14]: 12.5 mM | Kd [3, 15]: 18.3 mM | pKa [4, 16]: 5.84 | pKa [4, 17]: 7.3 | pKa [4, 18]: 8.17

COc1ccc(/C=C/c2ccc(B(O)O)cc2)cc1 [MSTBA, 4′-methoxystilbene-4-boronic acid]
Kd [1, 13]: 1 mM | Kd [2, 14]: 26 mM | Kd [3, 15]: 43 mM | pKa [4, 16]: 6.36 | pKa [4, 17]: 7.88 | pKa [4, 18]: 8.58

OB(O)c1ccc(/C=C/c2ccccc2)cc1 [STBA, stilbene-4-boronic acid]
Kd [1, 13]: 3.4 mM | Kd [2, 14]: 6 mM | Kd [3, 15]: 11 mM | pKa [4, 16]: 6.4 | pKa [4, 17]: 7.63 | pKa [4, 18]: 8.86 | overall decrease of the fluorescence emission after addition of sugar [5]: about 15%

OB(O)c1ccc2cc3ccccc3cc2c1 [anthrylboronic acid, anthryl-2-boronic acid]
decrease of emission intensity after addition of fructose ([6]; pH 7.4, literature): 30% | decrease of emission intensity after addition of glucose [7]: about 10% | decrease of emission intensity after addition of glucose ([7]; listed as anthryl-2-boronic acid): 10% | pKa of complex with fructose ([8]; saturated fructose solution): 5.9 | pKa ([8]; uncomplexed): 8.8

CN(C)c1ccc(/C=C/C=C/c2ccc(B(O)O)cc2)cc1 [compound 4, 1-(p-Dimethylaminophenyl)-4-(p-boronophenyl)-buta-1,3-diene]
Kd [2, 19]: 5.9 ± 0.6 mM | Kd [3, 20]: 17 ± 2 mM | pKa [4, 21]: 6.19 ± 0.04 | pKa [4, 22]: 6.97 ± 0.02 | pKa [4, 23]: 8.9 | Kd [9]: 1.12 ± 0.05 mM

CN(C)c1ccc(/C=C/C=C/C=C/c2ccc(B(O)O)cc2)cc1 [compound 5, 1-(p-dimethylaminophenyl)-6-(p-boronophenyl)-hexa-1,3,5-triene]
Kd [2, 19]: 5.4 ± 0.4 mM | Kd [3, 20]: 15 ± 1 mM | pKa [4, 21]: 6.1 ± 0.05 | pKa [4, 22]: 6.86 ± 0.02 | pKa [4, 23]: 8.75 | Kd [9]: 0.84 ± 0.03 mM

CN(C)c1ccc(-c2cnc(-c3ccc(B(O)O)cc3)o2)cc1 [compound 6, 5-(4′-Dimethylaminophenyl)-2-(4″-boronophenyl)oxazol]
increase of the emission intensity in presence of fructose [1, 24]: about 5 fold | Kd ([1]; compound 6, phosphate buffer/methanol (2:1 v/v) at pH 7.0, read-out: Dissociation constant (KD) for fructose): 1.9 ± 0.1 mM | increase of the emission intensity in presence of galactose [2, 24]: about 3 fold | Kd ([2]; compound 6, phosphate buffer/methanol (2:1 v/v) at pH 7.0, read-out: Dissociation constant (KD) for galactose): 14 ± 1 mM | increase of the emission intensity in presence of glucose [3, 24]: about 3 fold | Kd ([3]; compound 6, phosphate buffer/methanol (2:1 v/v) at pH 7.0, read-out: Dissociation constant (KD) for glucose): 37 ± 3 mM | pKa in presence of fructose ([4]; compound 6): 5.6 | pKa in presence of glucose ([4]; compound 6): 6.5 | pKa in absence of sugar ([4]; compound 6, λex=350 nm): 7.8

CN(Cc1ccccc1B(O)O)Cc1c2ccccc2cc2ccccc12 [compound 7, 9-[[N-Methyl-N-(o-boronobenzyl)amino]methyl]anthracene]
Log KS, Mean Lifetime [10]: 2.5 (0.994:4) | Log KS, Steady State Intensity [10]: 1.7 (0.993:7) | Log KS, Modulation ([10]; 30 MHz): 2.5 (0.999:6) | Log KS, Phase Angle ([10]; 30 MHz): 2.2 (0.993:5) | Kd [10, 25]: 3.4 mM | Kd [10, 26]: 6.1 mM | Kd ([10]; read-out: KD, Mean Lifetime): 3.2 mM | Kd [10, 27]: 19.3 mM | solubility [11]: relatively low solubility

CN(Cc1ccccc1B(O)O)Cc1c2ccccc2c(CN(C)Cc2ccccc2B(O)O)c2ccccc12 [compound 8, 9,10-Bis[[N-methyl-N-(o-boronobenzyl)amino]methyl]anthracene]
Log KS, Mean Lifetime [10]: 4.4 (0.992:11) | Log KS, Steady State Intensity [10]: 3.1 (0.998:12) | Log KS, Modulation ([10]; 30 MHz): 4.1 (0.995:7) | Log KS, Phase Angle ([10]; 30 MHz): 4.5 (0.996:10) | Kd [10, 25]: 0.079 mM | Kd [10, 26]: 0.032 mM | Kd ([10]; read-out: KD, Mean Lifetime): 0.04 mM | Kd [10, 27]: 0.79 mM | solubility [11]: relatively low solubility

OB(O)c1ccccc1 [phenylboronic acid]
Kd ([6]; literature value, read-out: KD D-fructose): 0.2 mM | Kd [12]: 3.6 mM | Kd ([7]; literature value, read-out: KD D-glucose): 9.1 mM
